Drawing on EP4711371A1 (priority 2023, dated 2024), this text covers IC50 for 32 compounds.

One may read the IC50 as the concentration needed to halve the response being measured.

Like-named read-outs stand apart in the source and are kept apart here. Bounds are passed on as bounds.

Format in all cases: cell-based
One experiment relates to T47D. Briefly: cells. To be noted: Homo sapiens, 120 h, read-out: T47D IC50. Here is the method: (§1) Test Example 2 In vitro proliferation inhibition assay of the camptothecin derivatives (Payload) of the present invention on tumor cells 1. Instruments and Reagents
(§2) 2. Experimental Procedure • a. Plating & culture: MDA-MB-453 (purchased from: Xiehe, catalog number: 1101HUM-PUMCO00016)/T47D (Kebai, CBP60397)/HT1376 cells (purchased from: Kebai, catalog number: CBP60310) were cultured into 96-well plates by a density of 1×10^3 /2×10^3 /1×10^3 cells per100 µL, and 200 µL of PBS was added to the outermost circle (to reduce the volatilization of the culture medium), and cultured at 37°C, 5% CO2 incubator for 24 h; • b. Drug Addition & Incubation: The 96-well flat-bottom plate was retrieved. The culture medium in the wells was aspirated, and 100 µL of the ADC drug/payload (diluted in culture medium) was added to each well. The plate was then incubated at 37°C, 5% CO2 incubator for 5 days. 3. Detection and data processing • a. The 96-well plate was retrieved. The culture medium was removed, and 100 µL of detection reagent (CCK8:medium= 1:9) was added to each well. The plate was then placed in a 37°C, 5% CO2 incubator for 4 hours; • b. The optical density (OD) at 450 nm was measured using a microplate reader (model: CEY0017), and the data was recorded with Excel. • c. Graphpad Prism 9.0 was used to analyze and organize the data.

The next experiment relates to HT1376. Briefly: In vitro proliferation inhibition assay of camptothecin derivatives (Payload), Test Example 2. To be noted: Homo sapiens, HT-1376, 120 h, read-out: HT1376 IC50. Here is the method: as §1, §2
A further experiment has as its system MDA-MB-453. The description is as above. To be noted: Homo sapiens, MDA-MB-453, 120 h, read-out: MDA-MB-453 IC50. How it is done: as §1, §2
[1] abbreviates: payload, incubated 5 days, CCK8, OD 450 nm.

In the case of `CC[C@@]1(O)C(=O)OCc2c1cc1n(c2=S)Cc2c-1nc1cc(F)c(OC)cc1c2CNC(=O)[C@H](C)O` [Compound 32], the IC50 with T47D came out at 0.089 nM; in the experiment on HT1376, 15.3 nM; with MDA-MB-453, 0.417 nM.
On to `CC[C@@]1(O)C(=O)OCc2c1cc1n(c2=S)Cc2c-1nc1cc3c(cc1c2CNC(=O)[C@H](C)O)OCCO3` [Compound 40], for which the IC50 with T47D is 0.053 nM; with HT1376, 18.2 nM; in the experiment on MDA-MB-453, 0.021 nM.
With `CC[C@@]1(O)C(=O)OCc2c1cc1n(c2=S)Cc2c-1nc1cc(F)c(OC)cc1c2CNC(=O)OCCO` [Compound 33], the half-maximal inhibitory concentration (IC50) was determined as 0.392 nM in the experiment with T47D, 45.4 nM in the experiment on HT1376 and 0.599 nM in the experiment with MDA-MB-453.
In the case of `CC[C@@]1(O)C(=O)OCc2c1cc1n(c2=S)Cc2c-1nc1cc(F)c(C)cc1c2CNC(=O)C1CCC(O)C1` (some centres unmarked) [Compound 28], the IC50 with T47D was determined as 0.15 nM; in the experiment with HT1376, 42.4 nM; in the experiment on MDA-MB-453, 6.17 nM.
In the same order, the values of `CC[C@@]1(O)C(=O)OCc2c1cc1n(c2=S)Cc2c-1nc1cc3c(cc1c2CN)OCCO3` [Compound 13] are 0.059 nM, 10.9 nM and 0.797 nM.
For `CC[C@@]1(OC(=O)Cn2cc(F)c(=O)[nH]c2=O)C(=O)OCc2c1cc1n(c2=S)Cc2c-1nc1cc(F)c(C)cc1c2CNC(=O)CO` [Compound 25], the values for the IC50 in the experiment on T47D (setting [1]), in the experiment on HT1376 (setting [1]) and in the experiment with MDA-MB-453 (setting [1]) were 2.6 nM, 8.39 nM and 103 nM, respectively.
Take `CC[C@@]1(O)C(=O)OCc2c1cc1n(c2=S)Cc2c-1nc1cc(F)c(C)cc1c2[C@@H](C)N` [Compound 16]: the IC50 with T47D was determined as 0.141 nM; with HT1376, 3.87 nM; in the experiment on MDA-MB-453, 0.481 nM.
In the same order, the values of `CC[C@@]1(O)C(=O)OCc2c1cc1n(c2=S)Cc2c-1nc1cc3c(cc1c2CNC(=S)CO)OCCO3` [Compound 39] are 0.047 nM, 8.69 nM and 0.482 nM.
Turning to `CC[C@@]1(O)C(=O)OCc2c1cc1n(c2=S)Cc2c-1nc1cc(F)c(F)cc1c2CNC(=O)[C@H](C)O` [Example 45], the IC50 with T47D was 2.79 nM; in the experiment on HT1376 it was 3.79 nM; with MDA-MB-453, 4.97 nM.
In the same order, the values of `CC[C@@]1(O)C(=O)OCc2c1cc1n(c2=S)Cc2c-1nc1cc(F)c(C)cc1c2CNC(=S)CO` [Compound 26] are < 0.003 nM, 0.014 nM and 1 nM.
Take `CC[C@@]1(O)C(=O)OCc2c1cc1n(c2=S)Cc2c-1nc1cc(F)c(C)cc1c2CNC(=O)[C@@H](C)O` [Compound 23]: the IC50 with T47D is 0.117 nM; in the experiment with HT1376 it was 5.94 nM; with MDA-MB-453, 0.343 nM.
In the same order, the values of `CC[C@@]1(O)C(=O)OCc2c1cc1n(c2=S)Cc2c-1nc1cc3c(cc1c2CNC(=O)[C@@H](C)O)OCCO3` [Compound 41] are 0.231 nM, 24.1 nM and 0.943 nM.
With `CC[C@@]1(O)C(=O)OCc2c1cc1n(c2=S)Cc2c-1nc1cc(F)c(C)cc1c2CNCCO` [Compound 27], the IC50 in the experiment on T47D is 0.152 nM; with HT1376 it was 2.5 nM; in the experiment on MDA-MB-453, 0.17 nM.
With `[2H]C([2H])(O)C(=O)NCc1c2c(nc3cc(F)c(C)cc13)-c1cc3c(c(=S)n1C2)COC(=O)[C@]3(O)CC` [Compound 29], the IC50 is 0.014 nM in the experiment with T47D, 5.98 nM in the experiment with HT1376 and 0.183 nM in the experiment with MDA-MB-453.
As to `CC[C@@]1(O)C(=O)OCc2c1cc1n(c2=S)Cc2c-1nc1cc3c(cc1c2CNC(=O)OCCO)OCCO3` [Compound 37], the half-inhibitory concentration (IC50) in the experiment on T47D came out at 0.054 nM; with HT1376, 13.5 nM; with MDA-MB-453, 0.013 nM.
Consider `CC[C@@]1(O)C(=O)OCc2c1cc1n(c2=S)Cc2c-1nc1cc(F)c(OC)cc1c2CNC(=O)[C@@H](C)O` [Compound 34], for which the figures for the IC50 with T47D, with HT1376 and in the experiment on MDA-MB-453 were 0.151 nM, 10.1 nM and 0.652 nM, respectively.
For `CC[C@@]1(O)C(=O)OCc2c1cc1n(c2=S)Cc2c-1nc1cc(F)c(OC)cc1c2CNC(=O)[C@H]1C[C@@H](O)C1` [Compound 30], the values for the concentration for half-maximal inhibition (IC50) with T47D, in the experiment with HT1376 and in the experiment with MDA-MB-453 were 0.391 nM, 66.7 nM and 1.01 nM, respectively.
In the case of `CC[C@@]1(O)C(=O)OCc2c1cc1n(c2=S)Cc2c-1nc1cc3c(cc1c2CNC(=O)CO)OCCO3` [Compound 36], the half-inhibitory concentration (IC50) was 0.119 nM with T47D, 10.3 nM in the experiment with HT1376 and 0.029 nM with MDA-MB-453.
As for `CC[C@@]1(O)C(=O)OCc2c1cc1n(c2=S)Cc2c-1nc1cc(Cl)c(C)cc1c2CNC(=O)[C@H]1C[C@@H](O)C1` [Example 42], the results for the half-maximal inhibitory concentration (IC50) in the experiment with T47D, in the experiment on HT1376 and in the experiment on MDA-MB-453 were 0.845 nM, 40.2 nM and 4.18 nM, respectively.
With `CC[C@@]1(O)C(=O)OCc2c1cc1n(c2=S)Cc2c-1nc1cc(F)c(C)cc1c2CNC(=O)[C@H](O)C1CC1` [Compound 20], the IC50 with T47D came to 0.245 nM; with HT1376, 0.917 nM; in the experiment on MDA-MB-453, 8.06 nM.
In the same order, the values of `CC[C@@]1(O)C(=O)OCc2c1cc1n(c2=S)Cc2c-1nc1cc(F)c(C)cc1c2CNC(=O)[C@H](C)O` [Compound 22] are 0.116 nM, 5.38 nM and 0.362 nM.
`CC[C@@]1(O)C(=O)OCc2c1cc1n(c2=S)Cc2c-1nc1cc(F)c(F)cc1c2CNC(=O)[C@H]1C[C@@H](O)C1` [Example 44]: the IC50 in the experiment on T47D was found to be 0.195 nM; in the experiment with HT1376, 5.05 nM; with MDA-MB-453, 0.674 nM.
Turning to `CC[C@@]1(OC(=O)Cn2cc(F)c(=O)[nH]c2=O)C(=O)OCc2c1cc1n(c2=S)Cc2c-1nc1cc(F)c(C)cc1c2CN` [Compound 24], the IC50 in the experiment on T47D (setting [1]) turned out to be 3.6 nM; in the experiment on HT1376 (setting [1]), 25.4 nM; with MDA-MB-453 (setting [1]), 78.4 nM.
With `CC[C@@]1(O)C(=O)OCc2c1cc1n(c2=S)Cc2c-1nc1cc(Cl)c(C)cc1c2CN` [Compound 14], the IC50 in the experiment with T47D was determined as 0.25 nM; in the experiment with HT1376, 13.8 nM; with MDA-MB-453 it was 5.23 nM.
Regarding `CC[C@@]1(O)C(=O)OCc2c1cc1n(c2=S)Cc2c-1nc1cc3c(cc1c2CNC(=O)[C@H]1C[C@@H](O)C1)OCCO3` [Compound 38], the IC50 worked out at 0.234 nM in the experiment with T47D, 38.4 nM in the experiment on HT1376 and 0.121 nM in the experiment with MDA-MB-453.
For `CC[C@@]1(O)C(=O)OCc2c1cc1n(c2=S)Cc2c-1nc1cc(F)c(C)cc1c2CNC(=O)[C@@H](O)C1CC1` [Compound 19], the IC50 turned out to be 0.268 nM in the experiment with T47D, 9.36 nM in the experiment with HT1376 and 1.01 nM in the experiment on MDA-MB-453.
For `CC[C@@]1(O)C(=O)OCc2c1cc1n(c2=S)Cc2c-1nc1cc(F)c(OC)cc1c2CNC(=O)CO` [Compound 31], the half-inhibitory concentration (IC50) in the experiment with T47D was found to be 0.142 nM; with HT1376 it was 19.5 nM; in the experiment with MDA-MB-453, 0.337 nM.
`CC[C@@]1(O)C(=O)OCc2c1cc1n(c2=S)Cc2c-1nc1cc(F)c(C)cc1c2CNC(=O)[C@H]1C[C@@H](O)C1` [Compound 21]: the IC50 in the experiment with T47D amounted to 0.108 nM; with HT1376, 11.6 nM; with MDA-MB-453, 0.294 nM.
For the compound `CC[C@@]1(O)C(=O)OCc2c1cc1n(c2=S)Cc2c-1nc1cc(Cl)c(C)cc1c2CNC(=O)[C@H](C)O` [Example 43], the figures for the half-inhibitory concentration (IC50) in the experiment on T47D, in the experiment on HT1376 and with MDA-MB-453 were 0.089 nM, 9.94 nM and 1.64 nM, respectively.
Regarding `CC[C@@]1(O)C(=O)OCc2c1cc1n(c2=S)Cc2c-1nc1cc(F)c(F)cc1c2CN` [Compound 15], the concentration for half-maximal inhibition (IC50) in the experiment with T47D turned out to be 0.157 nM; in the experiment with HT1376 it was 9.76 nM; in the experiment with MDA-MB-453, 1.1 nM.
`CC[C@@]1(O)C(=O)OCc2c1cc1n(c2=S)Cc2c-1nc1cc(F)c(OC)cc1c2CNC(=S)CO` [Compound 35]: the half-maximal inhibitory concentration (IC50) in the experiment on HT1376 was 4.94 nM; in the experiment with MDA-MB-453, ~1.22 nM.
On to `CC[C@@]1(O)C(=O)OCc2c1cc1n(c2=S)Cc2c-1nc1cc(F)c(OC)cc1c2CN` [Compound 12], for which the IC50 came out at 0.093 nM in the experiment with T47D, 1.97 nM in the experiment on HT1376 and 0.312 nM in the experiment with MDA-MB-453.
